Patent EP0278673B1, “A benzoylurea derivative and its production and use” (priority 1987, dated 1988)

How the values were obtained:
Format in all cases: in vivo
[1] = test system: common mosquito (Culex pipiens pallens); experiment: Emergence inhibition test on last instar mosquito larvae (Test example 1); settings: 0.01 ppm in water; 20 last instar larvae bred until emergence; two replications
Procedure: The emulsifiable concentrates of the following test compounds obtained according to Formulation example 1 were each diluted with water to a concentration of 0.01 ppm. Thereafter, 100 ml of each dilute solution thus obtained was put in a 180-ml polyethylene cup, and 20 last instar larvae of common mosquito (Culex pipiens pallens) were liberated therein. The larvae were bred on a bait until emergence to obtain an emergence inhibitory ratio (two replications).

[2] = test system: tobacco cutworm (Spodoptera litura); experiment: Mortality test on fourth instar larvae with treated artificial diet (Test example 2); settings: 50 ppm, 2 ml on 13 g artificial diet, after six days, two replications, 8640 min
Excerpt: The emulsifiable concentrates of the following test compounds obtained according to Formulation example 1 were each diluted with water to a concentration of 50 ppm. Two milliliters of each dilute solution thus obtained was applied onto 13 g of artificial diet for tobacco cutworm (Spodoptera litura) which were then put in a polyethylene cup of 11 cm in diameter. Then, ten fourth instar larvae of tobacco cutworm were liberated in the cup. After six days, the dead and alive were examined to obtain mortality (two replications).

[3] = test system: carmine spider mite (Tetranychus cinnabarinus); experiment: Adult emergence inhibition test on sprayed deutonymphs (Test example 3); settings: 3 ml sprayed, after three days
Procedure: The emulsifiable concentrates of the following test compounds obtained according to Formulation example 1 were each diluted with water to a pre-determined concentration to obtain a dilute solution of each emulsifiable concentrate. From 20 to 60 deutonymphs of carmine spider mite (Tetranychus cinnabarinus) were transferred onto leaves in a petri dish, and 3 ml of the dilute solution was sprayed thereon. After three days, the number of the adults was counted to obtain an adult emergence inhibitory ratio.

[4] = test system: carmine spider mite (Tetranchus cinnabarinus); experiment: Sterilization test on sprayed female adults, egg hatchability (Test example 4); settings: 100 ppm, 3 ml sprayed on female adults; oviposition three days; hatchability after six days at 27°C
Procedure: The emulsifiable concentrates of the following test compounds obtained according to Formulation example 1 were each diluted with water to a concentration of 100 ppm to obtain a dilute solution of each emulsifiable concentrate. Thirty female adults of carmine spider mite (Tetranchus cinnabarinus) were transferred onto a leaf in a petri dish, and 3 ml of the dilute solution was sprayed thereon. After air-drying, 18 female adults were transferred onto untreated leaves in a petri dish, and allowed to oviposit for three days. The eggs obtained were stored in a chamber controlled at 27°C in an artificial weather room. After six days, hatchability of the eggs was examined to obtain a sterilization ratio.

[5] = test system: carmine spider mite (Tetranychus cinnabarinus); experiment: Degree of mite damage on potted kidney bean after spray and soil treatment (Test example 5); parameters: key: -: Little damage is observed.; +: Slight damage is observed.; ++: Same damage as in the untreated plot is observed; settings: 500 ppm, 10 ml sprayed on plant, 2 ml on pot soil, after 20 days
Procedure: Ten female adults of carmine spider mite (Tetranychus cinnabarinus) were transferred onto each leaf of potted kidney bean in a primary leaf stage, which had elapsed seven days after sowing, and stored in a constant-temperature room kept at 25°C. After six days, the emulsifiable concentrate of the following test compounds formulated according to Formulation example 1 was diluted with water so that the active ingredient concentration was 500 ppm. Ten milliliters of the dilute solution was sprayed onto the plant on a turn table by a spray gun, and 2 ml of the diluted solution was treated on the pot soil. After 20 days, the degree of damage of each kidney bean by mites was examined.
The degree of damage was classified into three stages, -, + and ++. - : Little damage is observed. + : Slight damage is observed. ++: Same damage as in the untreated plot is observed.

SMILES: O=C(NC(=O)c1c(F)cccc1F)Nc1cc(Cl)c(Nc2ccc(OC(F)(F)F)cc2)c(Cl)c1 [(1), N-2,6-difluorobenzoyl-Nʹ-3,5-dichloro-4-[4-(trifluoromethoxy)anilino]phenylurea]
- Emergence inhibitory ratio (%) [1]: 100%
- Mortality (%) [2]: 100%
- Concentration and adult emergence inhibitory ratio (%) 100 ppm [3]: 100%
- Concentration and adult emergence inhibitory ratio (%) 500 ppm ([3]; 500 ppm): 94%
- Sterilization ratio (%) [4]: 98%
- Degree of damage [5]: -

SMILES: O=C(NC(=O)c1c(F)cccc1F)Nc1cc(Cl)c(Nc2ccc(OC(F)(F)C(F)F)cc2)c(Cl)c1 [(3), N-2,6-difluorobenzoyl-Nʹ-3,5-dichloro-4-[4-(1,1,2,2-tetrafluoroethoxy)anilino]phenylurea]
- Emergence inhibitory ratio (%) [1]: 100%
- Mortality (%) [2]: 100%
- Concentration and adult emergence inhibitory ratio (%) 100 ppm [3]: 91%
- Sterilization ratio (%) [4]: 95%
